# Measured values as given in patent publication US20150057447A1, “METHOD OF PRODUCING N-PHENYL-N'-PHENYLSULFONYL PIPERAZINE DERIVATIVE AND INTERMEDIATE THEREOF” (priority 2012, published 2015).
# Assays:
# Type in all cases: physicochemical
# [1] = Evaluation of hygroscopicity by measuring moisture adsorption-desorption isotherm; conditions: 25° C.; for ratio of mass increase, moisture desorption isotherm: 0% RH; for ratio of mass increase relative to the mass at 0% RH, moisture adsorption isotherm: 95% RH
# Text: Moisture adsorption-desorption isotherm is one of means for measuring the adsorption or desorption of moisture. It is a method of measuring the mass change as a function of the relative humidity at constant temperature, and under the conditions where adsorption or desorption is essentially occurring independently of time (equilibrium conditions). Moisture adsorption-desorption isotherm is obtained by plotting relative humidities versus the ratio(%) of the mass increase compared to the mass when the relative humidity of 0%. Accordingly, it is possible to obtain the information about hygroscopicity or dehumidifying nature of the sample.
# Moisture adsorption-desorption isotherm of the compounds specified in following (1) to (4) obtained from corresponding examples were measured by the following conditions.
# (Operating Method) About 50 mg of the sample was weighted in the mesh stainless-steel sample container, then it was dried at the relative humidity (hereinafter, RH) 0% until the mass change doesn't happen in the device. Temperature and humidity were controlled by the following conditions, and dynamic gravimetric measurement was conducted. Measurement temperature: 25° C. Measurement humidity range: adsorption 0˜95% RH, desorption 95˜0% RH, 5% RH interval Measurement condition: Isotherm condition Herein, isotherm condition means that measurement is move on to next humidity point when the mass change is no longer observed after minimum waiting time or when the equilibrium of mass was not observed until maximum waiting time under constant humidity. The minimum waiting time for equilibrium determination at each humidity: 10 minutes The maximum waiting time for equilibrium determination at each humidity: 2 hours Humidity control: nitrogen and humidification device, 250 mL/minutes (1) Result of the moisture adsorption-desorption isotherm for magnesium bis[5-chloro-2-(1,3-oxazole-2-yl)phenolate] In measuring the moisture adsorption isotherm, in the case of 95% RH, the ratio of mass increase was 2% relative to the mass at 0% RH. In measuring the moisture desorption isotherm, in the case of 0% RH, the ratio of mass increase was 0%. (2) Result of the moisture adsorption-desorption isotherm for calcium bis[5-chloro-2-(1,3-oxazole-2-yl)phenolate] In measuring the moisture adsorption isotherm, in the case of 95% RH, the ratio of mass increase was 3% relative to the mass at 0% RH. In measuring the moisture desorption isotherm, in the case of 0% RH, the ratio of mass increase was 0%.
# [2] = Evaluation of sublimation by measuring TG/DTA; conditions: for sublimation (conclusion from TG/DTA): open system
# Procedure: Evaluation of Sublimation by Measuring TG/DTA
# (1) 5-Chloro-2-(1,3-oxazole-2-yl)phenol (I-3, 5 mg) which was obtained from the method described in Patent Document 6 was measured, and an aluminum pan was stuffed with it and measured in the open system. The measurement conditions are as follows.
# Device: TG/DTA 7200 by SII nano technology Measurement temperature range: 30° C.-200° C. Heating rate: 10° C./minute Purge gas: N2 200 mL/minute
# (2) 5-Chloro-2-(1,3-oxazole-2-yl)phenol (I-3, about 10 mg) which was obtained from the method described in Patent Document 6 was measured, and an aluminum pan was stuffed with it and measured in the open system. The measurement conditions are as follows.
# Device: TG/DTA 7200 by SII nano technology Measurement temperature, range: 40° C. Measurement time: 720 minutes Purge gas: N2 200 mL/minute
# (3) Magnesium bis[5-chloro-2-(1,3-oxazole-2-yl)phenolate (I-2, 5 m g) which was obtained from Example 1(1) was measured, and an aluminum pan was stuffed with it and measured in the open system. The measurement conditions are as follows.
# Device: TG/DTA 7200 by SII nano technology Measurement temperature program: 30° C.-200° C. Rate of temperature increase: 10° C./minute Purge gas: N2 200 mL/minute
# [3] = Evaluation of sublimation (heating under reduced pressure, flask with condenser tube)
# Procedure: 5-Chloro-2-(1,3-oxazole-2-yl)phenol (I-3, 3.01 g, 15.4 mmol) which was obtained from the method described in Patent Document 6 was measured in a round-bottomed flask with condenser tube filled with −15° C. cooling liquid, and heated at 40° C. for 6 hours under the reduced pressure (16˜18 mmHg). After 6 hours, 0.02 g of colorless solids were adhered to the condenser tube. The colorless solids were measured by ^1H-NMR (DMSO-d6), it was confirmed to be 5-chloro-2-(1,3-oxazole-2-yl)phenol (I-3).
"colorless solids adhered to the condenser tube ([3]; 3.01 g heated at 40° C. for 6 hours under reduced pressure (16~18 mmHg), condenser at -15° C.) [g]","sublimation (conclusion from reduced pressure heating test) ([3]; 40° C., 6 hours, 16~18 mmHg)","weight loss (TG/DTA, constant temperature) ([2]; 40° C., 720 minutes, solid state, open aluminum pan, N2 200 mL/minute) [%]","weight loss (TG/DTA) ([2]; observed at 40-85° C., range 30° C.-200° C., heating rate 10° C./minute, open aluminum pan, N2 200 mL/minute) [%]",Molecule,"ratio of mass increase, moisture desorption isotherm [1] [%]","ratio of mass increase relative to the mass at 0% RH, moisture adsorption isotherm [1] [%]",sublimation (conclusion from TG/DTA) [2],"melting and weight loss (TG/DTA) ([2]; about 30° C.-about 180° C., program 30° C.-200° C., 10° C./minute, N2 200 mL/minute)"
,,,,"calcium bis[5-chloro-2-(1,3-oxazole-2-yl)phenolate] [Compound I-7]",0,3,,
,,,,"magnesium bis[5-chloro-2-(1,3-oxazole-2-yl)phenolate] [Compound I-2]",0,2,doesn't have sublimation,not observed
0.02,has sublimation,1.6,0.38,"Oc1cc(Cl)ccc1-c1ncco1 [Compound I-3, 5-chloro-2-(1,3-oxazole-2-yl)phenol]",,,has sublimation,
